Measurements as given in paper PMC8861095, “Neurotoxicological profile of the hallucinogenic compound 25I-NBOMe” (Scientific Reports, 2022).

Columns and labels:
[1] = system: DNA; test: Alkaline comet assay on nuclei from frontal cortex and hippocampus; assay type: in vivo, rat; settings: for DNA damage (tail moment): single and repeated (× 7) 0.3 mg/kg sc, 72 h after administration, vs control
Protocol: (§1) Animals received single or multiple (once per day for seven days) subcutaneous injections of 25I-NBOMe dissolved in 0.9% NaCl at a dose of 0.3 mg/kg/2 ml. The control group was treated with 0.9% NaCl solution in the same way. All procedures were performed 72 h after the last injection. The time point of 72 h was chosen due to the possible generation of neurotoxicity via oxidative stress caused by reactive oxygen species (ROS). Exceptionally, for initial 25I-NBOMe brain distribution studies, rats received the drug in the dose of 1 and 10 mg/kg and were sacrificed 15 min after the drug administration. The rat blood plasma and brain tissues were collected immediately after rats’ decapitation. LSD (0.05 mg/kg, ip) was given daily for 7 days in a volume of 1 ml/kg, while MDMA 5 mg/kg, ip was injected in a volume of 2 ml/kg every second day (overall 4 injections).
The alkaline comet assay was performed with the use of CometAssay® Reagent Kit for Single Cell Gel Electrophoresis Assay. At 72 h after the acute and chronic treatment with 25I-NBOMe (0.3 mg/kg, sc × 7 days), LSD (0.05 mg/kg, ip × 7 days) or MDMA (5 mg/kg, ip × 4 doses every second day) animals were sacrificed by decapitation and the frontal cortex (that consist of the sum of FC and mPFC) and hippocampus were dissected. After homogenization and several purification and centrifugation stages (as described previously in[17]), the nuclear suspension was obtained using a sucrose gradient (2.8 M/2.6 M, bottom to top). The nuclear fraction was mixed with low melting point agarose and transferred immediately onto CometSlides™. The following steps, including membrane lysis, DNA unwinding, alkaline electrophoresis, and staining (SYBR® Gold), were carried out according to Trevigen CometAssay® protocol. Stained sections were acquired and analyzed under a fluorescence microscope (Nikon Eclipse50i, Japan) equipped with a camera and NIS Elements software. The data was analyzed using OpenComet software v.1.3 (cometbio.org), a plugin of ImageJ program v.1.47 (NIH, Bethesda, MD, USA). DNA damage was presented as a tail moment. Tail moment incorporates a measure of both the smallest detectable size of migrating DNA (reflected by the comet tail length) and the number of damaged pieces (represented by the intensity of DNA in the tail).

[2] = 25I-NBOMe distribution in rat blood plasma and brain regions (LC–MS/MS, ESI ion trap); assay type: in vivo
Protocol: as §1
The presence of 25I-NBOMe in the rat brain regions and blood serum was analyzed with electrospray ion trap mass spectrometry (Amazon SL from Bruker Daltonics, Bremen, Germany). At 72 h after the last injection with 25I-NBOMe or 15 min after injection of single low and high (1 and 10 mg/kg) dose, animals were sacrificed by decapitation. Brains were removed and the frontal cortex, striatum, nucleus accumbens, and hippocampus were dissected. The blood samples were also collected after 25I-NBOMe injections. Tissue samples were homogenized in an ice-cold 0.1 M HClO4, and were centrifuged at 10,000×g for 10 min at 4 °C. Blood was incubated for 30 min and then centrifuged for 15 min, 3000 rpm at 4 °C. The collected blood serum and tissue supernatants were frozen at − 80 °C until the time of mass spectrometry analysis. The value pH of samples was about 2. To purify the samples, solid phase extraction (SPE) columns MacroSpin Columns Silica C18 (The Nest Group, Inc., Southborough, USA) were used. Initially, columns were activated with 100% methanol (MeOH) solution by double centrifugation at 110×g for 1 min. Next, to remove MeOH, 2% acetonitrile (ACN) with 0.1% HCOOH was used. Subsequently, the columns were washed twice with the blood and tissue samples. To remove adenosine-5'-diphosphate (ADP) that has the same precursor ion as 25I-NBOMe the columns were washed twice with 2% ACN. Finally, to wash out 25I-NBOMe, the column was washed twice with 80% ACN with 0.1% HCOOH. Samples were left to dry in SpeedVac Vacuum Concentrator (Labconco, Kansas City, USA) overnight. The following day, samples were dissolved in 10% ACN with 0.1% HCOOH and injected to the LC–MS/MS system. The nanoLC-MS/MS analysis used to separate compounds was performed using the Ultimate 3000 nanocapillary chromatography system (Polygen, Gliwice, Poland). The separations were performed using a PepMap column (15 cm long, 75 μm ID, C18, 3 μm particle size, 100 Å pore size, Thermo-Scientific). The gradient was formed using 0.1% HCOOH in H2O (solvent A) and 0.1% HCOOH in ACN (solvent B), at a flow rate of 300 nl/min. The system was controlled by the Hystar software (Bruker Daltonics). A gradient was produced from 5 to 80% B in 100 min, then kept at 90% of phase B for 10 min. The mass spectrometry detection was performed in positive ion mode by electrospray ion trap mass spectrometry (Amazon SL from Bruker Daltonics, Bremen, Germany). The retention time of 25I-NBOMe was about 30.3 min. The acquired mass spectra were analyzed using the Bruker Data Analysis v. 4.0 software (Bruker Daltonics). The data presented in tables are calculated as intensity per 1 mg of wet tissue or 1 ml of blood serum, while mass spectra represent the real intensity of 25I-NBOMe-precursor ion from tissue samples with different mass.

COc1cc(CCNCc2ccccc2OC)c(OC)cc1I [25I-NBOMe, 4-Iodo-2,5-dimethoxy-N-(2-methoxybenzyl)phenethylamine]
DNA damage (tail moment) ([1]; frontal cortex): produced DNA damage | DNA damage after multiple injections compared with a single dose ([1]; hippocampus, 0.3 mg/kg sc × 7 vs single, 72 h): stronger than after a single dose | DNA damage (tail moment) ([1]; hippocampus): produced DNA damage | Accumulation in brain tissue after repeated administration ([2]; 0.3 mg/kg × 7 vs single dose, 72 h): caused drug accumulation in the brain tissue | Intensity of the 25I-NBOMe precursor ion (~ 428 m/z) ([2]; blood plasma, single 1 mg/kg, 15 min after injection, per 1 ml of blood serum, one sample preparation): 9.24 × 10^4 a.u. | Intensity of the 25I-NBOMe precursor ion (~ 428 m/z) ([2]; blood plasma, single 10 mg/kg, 15 min after injection, per 1 ml of blood serum, one sample preparation): 5.44 × 10^5 a.u. | Crossing of the blood–brain barrier (BBB) ([2]; detected in blood serum and several brain regions 15 min after injection): easily crosses the blood–brain barrier (BBB) | Intensity of the 25I-NBOMe precursor ion (~ 428 m/z) ([2]; frontal cortex, chronic 0.3 mg/kg × 7 sc, 72 h after last injection, per 1 mg of wet tissue): 2.93 × 10^4 a.u. | Intensity of the 25I-NBOMe precursor ion (~ 428 m/z) ([2]; frontal cortex, single 0.3 mg/kg sc, 72 h after injection, per 1 mg of wet tissue): 2.25 × 10^3 a.u. | Intensity of the 25I-NBOMe precursor ion (~ 428 m/z) ([2]; frontal cortex, single 1 mg/kg, 15 min after injection, per 1 mg of wet tissue): 2.94 × 10^4 a.u. | Intensity of the 25I-NBOMe precursor ion (~ 428 m/z) ([2]; frontal cortex, single 10 mg/kg, 15 min after injection, per 1 mg of wet tissue): 4.36 × 10^5 a.u. | Intensity of the 25I-NBOMe precursor ion (~ 428 m/z) ([2]; hippocampus, chronic 0.3 mg/kg × 7 sc, 72 h after last injection, per 1 mg of wet tissue): 1.72 × 10^4 a.u. | Intensity of the 25I-NBOMe precursor ion (~ 428 m/z) ([2]; hippocampus, single 0.3 mg/kg sc, 72 h after injection, per 1 mg of wet tissue): 6.89 × 10^3 a.u. | Intensity of the 25I-NBOMe precursor ion (~ 428 m/z) ([2]; hippocampus, single 1 mg/kg, 15 min after injection, per 1 mg of wet tissue): 1.60 × 10^4 a.u. | Intensity of the 25I-NBOMe precursor ion (~ 428 m/z) ([2]; hippocampus, single 10 mg/kg, 15 min after injection, per 1 mg of wet tissue): 2.71 × 10^5 a.u. | Intensity of the 25I-NBOMe precursor ion (~ 428 m/z) ([2]; nucleus accumbens, chronic 0.3 mg/kg × 7 sc, 72 h after last injection, per 1 mg of wet tissue): 9.00 × 10^3 a.u. | Intensity of the 25I-NBOMe precursor ion (~ 428 m/z) ([2]; nucleus accumbens, single 0.3 mg/kg sc, 72 h after injection, per 1 mg of wet tissue): 3.85 × 10^3 a.u. | Intensity of the 25I-NBOMe precursor ion (~ 428 m/z) ([2]; nucleus accumbens, single 1 mg/kg, 15 min after injection, per 1 mg of wet tissue): 2.32 × 10^7 a.u. | Intensity of the 25I-NBOMe precursor ion (~ 428 m/z) ([2]; nucleus accumbens, single 10 mg/kg, 15 min after injection, per 1 mg of wet tissue): 7.15 × 10^7 a.u. | Intensity of the 25I-NBOMe precursor ion (~ 428 m/z) ([2]; striatum, chronic 0.3 mg/kg × 7 sc, 72 h after last injection, per 1 mg of wet tissue): 2.12 × 10^3 a.u. | Intensity of the 25I-NBOMe precursor ion (~ 428 m/z) ([2]; striatum, single 0.3 mg/kg sc, 72 h after injection, per 1 mg of wet tissue): 1.61 × 10^3 a.u. | Intensity of the 25I-NBOMe precursor ion (~ 428 m/z) ([2]; striatum, single 1 mg/kg, 15 min after injection, per 1 mg of wet tissue): 5.97 × 10^4 a.u. | Intensity of the 25I-NBOMe precursor ion (~ 428 m/z) ([2]; striatum, single 10 mg/kg, 15 min after injection, per 1 mg of wet tissue): 6.95 × 10^5 a.u.
